The compounds below were run against T1, PIK3CA (Homo sapiens, UniProt P42336) (assay: In vitro ELISA target engagement assay for PIK3CA in Jurkat cellular lysate (competition with PIK3CA Biotin Probe)). Conditions: 1 hour at rt, then 500 nM PIK3CA Biotin Probe, read-out: Elisa Target Engagement Assay (TE50).
T1 construct: endogenous in cells; host or cells: Jurkat cell lysate
Assay type: binding
Protocol: Example 3. In Vitro ELISA Target Engagement Assay for […] Engagement of compounds on PIK3CA were assessed in Jurkat cellular lysate via a sandwich ELISA. A solution of PIK3CA Biotin Probe was generated at 10 mM and used in the biological testing. […] Treatment Protocol: Jurkat cellular lysate was generated from frozen cell pellets. Cells were thawed on ice and resuspended in cold Dulbecco's phosphate buffered saline (DPBS) (12 mL/300 e^6 cells) then lysed by probe sonication (12×3 second pulses). Jurkat lysate was plated (50 μl/well) in Armadillo 96 well PCR plates (Thermo Fisher catalog number AB2396). The lysate was treated with serial dilutions of test compounds up to 200 μM and incubated for 1 hour at rt. Following compound incubation, PIK3CA Biotin Probe was added to a final concentration of 500 nM, and lysate was mixed by pipetting gently and incubated for an additional 1 hour at rt. The mixture was then diluted in 75 μL Dilution buffer. The mixture was centrifuged for 5 minutes at 4122 g and stored at −80° C. until ELISA TE detection. ELISA TE Detection: Quantification of PIK3CA TE was initiated by coating of the ELISA plate (Thermo Scientific White 384-Well Immuno plates; Thermo Fisher catalog number 460372). The capture antibody was diluted in plating buffer (1:83) and added to the ELISA plate, 20 μl/well, overnight at 4° C. The plate was then washed twice with PBST, 100 μl/well, and blocked with addition of blocking buffer (100 μl/well, 1 hour at rt). During block, treated and probe labeled lysate was thawed. After Block, the block buffer was removed and the thawed lysate was added to the ELISA plate, 30 μl/well, for 1.5 hours at rt. Following lysate incubation, the assay plate was washed 3 times with PBST, 100 μl/well. The Neutravidin-HRP was then diluted (1:500 in dilution buffer) and added for 1 hour at rt, 20 μl/well. Following incubation, the assay plate was washed 4 times with PBST, 100 μl/well, HRP substrate was added to plate, 20 μl/well and luminescence signal was read (Clariostar Plate Reader). For each compound the potency of target engagement (TE50) was determined using Graphpad Prism.

T1 sequence (P42336 whole entry): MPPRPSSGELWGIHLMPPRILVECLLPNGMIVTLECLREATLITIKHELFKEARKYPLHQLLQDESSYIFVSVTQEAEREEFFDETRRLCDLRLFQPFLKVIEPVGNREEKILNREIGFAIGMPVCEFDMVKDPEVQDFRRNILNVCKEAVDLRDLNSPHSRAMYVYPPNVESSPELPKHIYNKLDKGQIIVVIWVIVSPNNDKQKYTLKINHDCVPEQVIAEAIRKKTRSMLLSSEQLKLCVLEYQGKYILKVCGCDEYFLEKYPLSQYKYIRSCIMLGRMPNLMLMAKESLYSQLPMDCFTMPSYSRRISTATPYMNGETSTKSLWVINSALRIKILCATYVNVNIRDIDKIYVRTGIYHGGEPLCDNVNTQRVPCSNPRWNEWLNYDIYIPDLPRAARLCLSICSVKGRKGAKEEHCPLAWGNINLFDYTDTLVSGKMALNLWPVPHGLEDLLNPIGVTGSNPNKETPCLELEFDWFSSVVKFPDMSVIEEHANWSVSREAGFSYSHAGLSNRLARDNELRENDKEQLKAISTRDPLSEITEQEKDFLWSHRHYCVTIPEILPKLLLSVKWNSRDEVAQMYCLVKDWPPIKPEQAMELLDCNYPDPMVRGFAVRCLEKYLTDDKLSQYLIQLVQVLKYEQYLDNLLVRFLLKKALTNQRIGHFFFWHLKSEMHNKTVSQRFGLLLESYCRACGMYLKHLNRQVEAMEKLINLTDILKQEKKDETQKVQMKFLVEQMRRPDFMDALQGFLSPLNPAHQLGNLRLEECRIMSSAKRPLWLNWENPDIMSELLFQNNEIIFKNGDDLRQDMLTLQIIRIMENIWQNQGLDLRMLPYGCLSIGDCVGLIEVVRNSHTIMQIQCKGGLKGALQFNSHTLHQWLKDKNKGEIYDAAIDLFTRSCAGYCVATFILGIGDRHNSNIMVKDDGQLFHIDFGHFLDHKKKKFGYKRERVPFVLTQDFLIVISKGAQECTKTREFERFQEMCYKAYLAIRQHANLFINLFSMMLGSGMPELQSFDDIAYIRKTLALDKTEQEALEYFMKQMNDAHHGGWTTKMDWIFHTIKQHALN
T1 sequence (P27986 whole entry partner): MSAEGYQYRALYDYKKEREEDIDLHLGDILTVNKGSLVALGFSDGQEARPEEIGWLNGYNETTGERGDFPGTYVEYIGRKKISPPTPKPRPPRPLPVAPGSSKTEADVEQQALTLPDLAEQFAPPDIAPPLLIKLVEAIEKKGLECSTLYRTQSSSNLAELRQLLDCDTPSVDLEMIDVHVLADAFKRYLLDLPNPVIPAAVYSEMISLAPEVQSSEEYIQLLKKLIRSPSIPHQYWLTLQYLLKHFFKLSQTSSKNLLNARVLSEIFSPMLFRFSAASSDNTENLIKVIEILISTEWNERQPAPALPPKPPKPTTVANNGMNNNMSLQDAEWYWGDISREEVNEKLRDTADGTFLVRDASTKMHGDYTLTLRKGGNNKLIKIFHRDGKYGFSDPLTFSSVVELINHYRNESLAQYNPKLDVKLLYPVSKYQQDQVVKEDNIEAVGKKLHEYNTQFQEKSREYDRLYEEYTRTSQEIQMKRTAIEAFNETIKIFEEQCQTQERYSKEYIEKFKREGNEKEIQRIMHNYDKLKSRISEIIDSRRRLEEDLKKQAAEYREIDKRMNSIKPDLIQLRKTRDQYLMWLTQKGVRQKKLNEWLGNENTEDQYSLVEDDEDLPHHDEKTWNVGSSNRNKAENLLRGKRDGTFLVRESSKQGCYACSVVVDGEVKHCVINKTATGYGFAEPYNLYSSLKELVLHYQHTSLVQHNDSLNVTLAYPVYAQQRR

Compound | IC50
COc1ccc(S(=O)(=O)N2CCC(OC)(C(=O)N[C@H](C)/C=C\S(C)(=O)=O)CC2)c(-c2ccccc2Cl)c1 [Compound 146, 1-[2-(2-chlorophenyl)-4-methoxy-phenyl]sulfonyl-4-methoxy-N—[(Z,1R)-1-methyl-3-methylsulfonyl-allyl]piperidine-4-carboxamide] | 610 nM
CC(C)OC(=O)N1C[C@H](C(=O)N2CCC(F)(C(=O)N[C@H](C)/C=C\S(C)(=O)=O)CC2)[C@H](c2ccccc2Cl)C1 [Compound 159, isopropyl(3R,4R)-3-(2-chlorophenyl)-4-(4-fluoro-4-(((R,Z)-4-(methylsulfonyl)but-3-en-2-yl)carbamoyl)piperidine-1-carbonyl)pyrrolidine-1-carboxylate] | 980 nM
CCOC(=O)N1C[C@H](C(=O)N2CCC(F)(C(=O)N[C@H](C)/C=C\S(C)(=O)=O)CC2)[C@H](c2ccccc2Cl)C1 [Compound 160, ethyl (3R,4R)-3-(2-chlorophenyl)-4-(4-fluoro-4-(((R,Z)-4-(methylsulfonyl)but-3-en-2-yl)carbamoyl)piperidine-1-carbonyl)pyrrolidine-1-carboxylate] | 670 nM
C[C@H](/C=C\S(C)(=O)=O)NC(=O)C1(F)CCN(C(=O)[C@H]2CN(C(=O)C(C)(C)C)C[C@H]2c2ccccc2Cl)CC1 [Compound 161, 1-((3R,4R)-4-(2-chlorophenyl)-1-pivaloylpyrrolidine-3-carbonyl)-4-fluoro-N-((R,Z)-4-(methylsulfonyl)but-3-en-2-yl)piperidine-4-carboxamide] | 800 nM
C[C@H](/C=C\S(C)(=O)=O)NC(=O)C1(F)CCN(C(=O)[C@H]2CN(C(=O)c3ccccc3)C[C@H]2c2ccccc2Cl)CC1 [Compound 162, 1-((3R,4R)-1-benzoyl-4-(2-chlorophenyl)pyrrolidine-3-carbonyl)-4-fluoro-N-((R,Z)-4-(methylsulfonyl)but-3-en-2-yl)piperidine-4-carboxamide] | 770 nM
C[C@H](/C=C\S(C)(=O)=O)NC(=O)C1(F)CCN(C(=O)[C@H]2CN(CC(F)(F)F)C[C@H]2c2ccccc2Cl)CC1 [Compound 163, 1-((3R,4R)-4-(2-chlorophenyl)-1-(2,2,2-trifluoroethyl)pyrrolidine-3-carbonyl)-4-fluoro-N-((R,Z)-4-(methylsulfonyl)but-3-en-2-yl)piperidine-4-carboxamide] | 500 nM
CCC(F)(F)CN1C[C@H](C(=O)N2CCC(F)(C(=O)N[C@H](C)/C=C\S(C)(=O)=O)CC2)[C@H](c2ccccc2Cl)C1 [Compound 178, 1-((3R,4R)-4-(2-chlorophenyl)-1-(2,2-difluorobutyl)pyrrolidine-3-carbonyl)-4-fluoro-N-((R,Z)-4-(methylsulfonyl)but-3-en-2-yl)piperidine-4-carboxamide] | 540 nM
C[C@H](/C=C\S(C)(=O)=O)NC(=O)C1(F)CCN(C(=O)[C@H]2CN(CC(F)(F)c3ccccc3)C[C@H]2c2ccccc2Cl)CC1 [Compound 181, 1-((3R,4R)-4-(2-chlorophenyl)-1-(2,2-difluoro-2-phenylethyl)pyrrolidine-3-carbonyl)-4-fluoro-N-((R,Z)-4-(methylsulfonyl)but-3-en-2-yl)piperidine-4-carboxamide] | 700 nM
C[C@H](/C=C\S(C)(=O)=O)NC(=O)C1(F)CCN(C(=O)[C@H]2CN(CC(F)(F)C(F)(F)F)C[C@H]2c2ccccc2Cl)CC1 [Compound 182, 1-((3R,4R)-4-(2-chlorophenyl)-1-(2,2,3,3,3-pentafluoropropyl)pyrrolidine-3-carbonyl)-4-fluoro-N-((R,Z)-4-(methylsulfonyl)but-3-en-2-yl)piperidine-4-carboxamide] | 910 nM
CC(C)OC(=O)N1C[C@H](c2ccccc2Cl)[C@H](C(=O)N2CCC(F)(C(=O)N[C@H](C)/C=C\S(C)(=O)=O)CC2)C1 [Compound 199, isopropyl (3S,4S)-3-(2-chlorophenyl)-4-(4-fluoro-4-(((R,Z)-4-(methylsulfonyl)but-3-en-2-yl)carbamoyl)piperidine-1-carbonyl) pyrrolidine-1-carboxylate] | 900 nM
C[C@H](/C=C\S(C)(=O)=O)NC(=O)C1(F)CCN(S(=O)(=O)c2cnc(C(F)(F)F)cc2-c2cccc(F)c2Cl)CC1 [Compound 209, (R,Z)-1-((4-(2-chloro-3-fluorophenyl)-6-(trifluoromethyl)pyridin-3-yl)sulfonyl)-4-fluoro-N-(4-(methylsulfonyl)but-3-en-2-yl)piperidine-4-carboxamide] | 240 nM
C[C@H](/C=C\S(C)(=O)=O)NC(=O)C1(F)CCN(S(=O)(=O)c2cnc(C(F)(F)F)cc2-c2ccc(F)cc2Cl)CC1 [Compound 211, (R,Z)-1-((4-(2-chloro-4-fluorophenyl)-6-(trifluoromethyl)pyridin-3-yl)sulfonyl)-4-fluoro-N-(4-(methylsulfonyl)but-3-en-2-yl)piperidine-4-carboxamide] | 1000 nM
C[C@@H](/C=C\S(C)(=O)=O)NC(=O)C1(F)CCN(S(=O)(=O)c2cnc(C(F)(F)F)cc2-c2ccc(F)cc2Cl)CC1 [Compound 212, (S,Z)-1-((4-(2-chloro-4-fluorophenyl)-6-(trifluoromethyl)pyridin-3-yl)sulfonyl)-4-fluoro-N-(4-(methylsulfonyl)but-3-en-2-yl)piperidine-4-carboxamide] | 380 nM

Next, values leading:

IC50 | Compound
330 nM | COC1(C(=O)N[C@H](C)/C=C\S(C)(=O)=O)CCN(S(=O)(=O)c2ccc(C(F)(F)F)cc2-c2ccccc2Cl)CC1 [Compound 139, (R,Z)-1-((2′-chloro-5-(trifluoromethyl)-[1,1′-biphenyl]-2-yl)sulfonyl)-4-methoxy-N-(4-(methylsulfonyl)but-3-en-2-yl)piperidine-4-carboxamide]
120 nM | C[C@H](/C=C\S(C)(=O)=O)NC(=O)[C@]1(F)CCN(S(=O)(=O)c2ccc(C(F)(F)F)cc2-c2ccccc2Cl)[C@H](C)C1 [Compound 142, (2R,4S)-1-((2′-chloro-5-(trifluoromethyl)-[1,1′-biphenyl]-2-yl)sulfonyl)-4-fluoro-2-methyl-N-((R,Z)-4-(methylsulfonyl)but-3-en-2-yl)piperidine-4-carboxamide]
55 nM | C[C@H](/C=C\S(C)(=O)=O)NC(=O)[C@]1(F)CCN(S(=O)(=O)c2ccc(C#N)cc2-c2ccccc2Cl)[C@H](C)C1 [Compound 144, (2R,4S)-1-((2′-chloro-5-cyano-[1,1′-biphenyl]-2-yl)sulfonyl)-4-fluoro-2-methyl-N-((R,Z)-4-(methylsulfonyl)but-3-en-2-yl)piperidine-4-carboxamide]
450 nM | C[C@H](/C=C/C(=O)N1CC(F)(F)C1)NC(=O)[C@]1(F)CCN(S(=O)(=O)c2ccc(C(F)(F)F)cc2-c2ccccc2Cl)[C@H](C)C1 [Compound 152, (2R,4S)-1-((2′-chloro-5-(trifluoromethyl)-[1,1′-biphenyl]-2-yl)sulfonyl)-N-((R,E)-5-(3,3-difluoroazetidin-1-yl)-5-oxopent-3-en-2-yl)-4-fluoro-2-methylpiperidine-4-carboxamide]
190 nM | C[C@H](/C=C/C(=O)N1CC(F)(F)C1)NC(=O)[C@]1(F)CCN(S(=O)(=O)c2ccc(C#N)cc2-c2ccccc2Cl)[C@H](C)C1 [Compound 154, (2R,4S)-1-((2′-chloro-5-cyano-[1,1′-biphenyl]-2-yl)sulfonyl)-N-((R,E)-5-(3,3-difluoroazetidin-1-yl)-5-oxopent-3-en-2-yl)-4-fluoro-2-methylpiperidine-4-carboxamide]
200 nM | C[C@H](/C=C\S(C)(=O)=O)NC(=O)C1(F)CCN(S(=O)(=O)c2cc3sccc3cc2-c2ccccc2Cl)CC1 [Compound 157, (R,Z)-1-((5-(2-chlorophenyl)benzo [b]thiophen-6-yl)sulfonyl)-4-fluoro-N-(4-(methylsulfonyl)but-3-en-2-yl)piperidine-4-carboxamide]
220 nM | C[C@H](/C=C\S(C)(=O)=O)NC(=O)[C@]1(F)CCN(S(=O)(=O)c2cnc(C(F)(F)F)cc2-c2ccccc2Cl)[C@H](C)C1 [Compound 214, (2R,4S)-1-((4-(2-chlorophenyl)-6-(trifluoromethyl)pyridin-3-yl)sulfonyl)-4-fluoro-2-methyl-N-((R,Z)-4-(methylsulfonyl)but-3-en-2-yl)piperidine-4-carboxamide]
490 nM | C[C@H](/C=C/C(=O)N1CC(F)(F)C1)NC(=O)[C@]1(F)CCN(S(=O)(=O)c2cnc(C(F)(F)F)cc2-c2ccccc2Cl)[C@H](C)C1 [Compound 215, (2R,4S)-1-((4-(2-chlorophenyl)-6-(trifluoromethyl)pyridin-3-yl)sulfonyl)-N-((R,E)-5-(3,3-difluoroazetidin-1-yl)-5-oxopent-3-en-2-yl)-4-fluoro-2-methylpiperidine-4-carboxamide]
